Reference: ChEMBL document CHEMBL3046651, “Cytotoxicity and QSAR study of (thio)ureas derived from phenylalkylamines and pyridylalkylamines” (Med Chem Res, 2013)

Assays:
Format in all cases: functional, cell-based
[1] = Cytotoxicity against Homo sapiens (human) HuCCa1 cells assessed as inhibition of cell growth after 3 days by crystal violet staining; conditions: HuCC-A1, 72 h
[2] = tested on: A549; assay: Cytotoxicity against Homo sapiens (human) A549 cells assessed as inhibition of cell growth after 3 days by MTT assay; conditions: A549, 72 h
[3] = tested on: HepG2; assay: Cytotoxicity against Homo sapiens (human) HepG2 cells assessed as inhibition of cell growth after 3 days by MTT assay; conditions: HepG2, 72 h
[4] = tested on: MOLT-3; assay: Cytotoxicity against Homo sapiens (human) MOLT3 cells assessed as inhibition of cell growth after 3 days by crystal violet staining; conditions: MOLT-3, 72 h

Row | SMILES | IC50 [1] [µM] | IC50 [2] [µM] | IC50 [3] [µM] | IC50 [4] [µM]
1 | COc1cccc2c1C(=O)c1c(O)c3c(c(O)c1C2=O)C[C@@](O)(C(=O)CO)C[C@@H]3O[C@H]1C[C@H](N)[C@H](O)[C@H](C)O1 [DOXORUBICIN] | 0.64 | 0.7 | 0.42 | –
2 | O=C(NCc1ccccn1)Nc1ccc(Cl)cc1 | > 191 | > 191 | > 191 | 186
3 | COc1ccc(CCNC(=S)Nc2ccc(Cl)cc2)cc1OC | 139 | 129 | 60.8 | 38.9
4 | S=C(NCCc1ccccc1)Nc1ccc(Cl)cc1 | 84.2 | 75.7 | 44.7 | 25.1
5 | S=C(NCCc1ccccn1)Nc1ccc(Cl)cc1 | > 171 | > 171 | > 171 | 120
6 | S=C(NCc1cccc(CNC(=S)Nc2ccc(Cl)cc2)c1)Nc1ccc(Cl)cc1 | 52.6 | > 105 | 7.63 | 1.62
7 | COc1ccc(CCNC(=O)Nc2ccc(Cl)cc2)cc1OC | > 149 | > 149 | 52.8 | 50.7
8 | O=[N+]([O-])c1ccc(NC(=S)NCc2ccccn2)cc1 | > 173 | > 173 | 34.7 | 54.1
9 | COc1ccc(CCNC(=S)Nc2ccc([N+](=O)[O-])cc2)cc1OC | > 138 | 65 | 42.4 | 21.7
10 | O=[N+]([O-])c1ccc(NC(S)=NCCc2ccccc2)cc1 | 19.1 | 80.3 | 25.4 | 12.5
11 | O=C(NCCc1ccccn1)Nc1ccc(Cl)cc1 | > 181 | > 181 | 22.7 | 66.9
12 | S=C(NCc1ccccn1)Nc1ccc(Cl)cc1 | > 180 | > 180 | > 180 | 119
13 | O=[N+]([O-])c1ccc(NC(=S)NCCc2ccccn2)cc1 | > 165 | > 165 | 152 | 78.7
14 | O=[N+]([O-])c1ccc(NC(=S)NCc2cccc(CNC(=S)Nc3ccc([N+](=O)[O-])cc3)c2)cc1 | 34.2 | 88.6 | 7.51 | 3.36
15 | O=C(NCCc1ccccc1)Nc1ccc(Cl)cc1 | > 182 | > 182 | 37.6 | > 182
